From US6673345B2, “Anti-parasite astacin metalloendopeptidase antibodies” (Heska Corporation, priority 1994, dated 2004)
Entries after “also recorded” stand apart in the source; their conditions may differ.

Key:
astacin = astacin (Astacus astacus, UniProt P07584); conditions: cited from earlier work
[1] = tested on: ES proteins displaying metalloprotease activity (about 60 kD, about 95 kD, at least about 200 kD); conditions: 2 mM EDTA in reaction buffer, about 37° C., 66 hours
D. immitis larvae (L3) = test: Effect of protease inhibitors on D. immitis larval molting in culture; type: cell-based, Dirofilaria immitis; conditions: for % reduction (of molt versus control): 72 hours; for % molt: L3 in NI medium, evaluated at 72 hours, control 82.6; for Observed movement and condition of treated larvae compared to controls: observed daily throughout the study; for Effect on ability of larvae to molt (in words): treatment of L3, ANOVA overall P=0.0001

Sequence of astacin (P07584 50-249 limits assumed): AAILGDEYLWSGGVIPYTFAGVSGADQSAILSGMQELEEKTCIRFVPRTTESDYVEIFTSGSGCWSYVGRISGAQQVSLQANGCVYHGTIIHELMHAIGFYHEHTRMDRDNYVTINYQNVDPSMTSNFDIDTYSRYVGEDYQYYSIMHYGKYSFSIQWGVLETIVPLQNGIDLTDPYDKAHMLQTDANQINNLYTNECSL

Molecule	Inhibition of astacin activity (astacin)	Inhibition of ES metalloprotease (collagenase) activity [1]	% reduction (of molt versus control) (D. immitis larvae (L3); 1.0 mM inhibitor)	% molt (D. immitis larvae (L3); 1.0 mM inhibitor)	% reduction (of molt versus control) (D. immitis larvae (L3); 2.5 mM inhibitor)	% molt (D. immitis larvae (L3); 2.5 mM inhibitor)	% reduction (of molt versus control) (D. immitis larvae (L3); 5.0 mM inhibitor)	% molt (D. immitis larvae (L3); 5.0 mM inhibitor)	Observed movement and condition of treated larvae compared to controls (D. immitis larvae (L3))	Effect on ability of larvae to molt (in words) (D. immitis larvae (L3))
TIMP1: Tissue inhibitor of metalloproteinases, protein inhibitor of zinc endopeptidases	do not demonstrate inhibitory activity									
O=C(O)CN(CCN(CC(=O)O)CC(=O)O)CC(=O)O [EDTA, ethylene diamine tetraacetic acid]	inhibited	completely inhibited								
CC(C)C[C@H](NC(=O)[C@@H](O)[C@H](N)Cc1ccccc1)C(=O)O [Bestatin]			27.3%	60.0%	57.9%	34.8%	94.1%	4.9%	moved much more slowly	significantly reduces the ability of the larvae to molt
c1cnc2c(c1)ccc1cccnc12 [1,10-phenanthroline]	inhibited									
CC(C)C[C@H](NP(=O)(O)O[C@@H]1O[C@@H](C)[C@H](O)[C@@H](O)[C@H]1O)C(=O)N[C@@H](Cc1c[nH]c2ccccc12)C(=O)O [Phosphoramidon]			48.4%	42.6%	85.1%	12.3%	100.0%	0.0%	very active; also recorded: in poor shape by the end of the study	significantly reduces the ability of the larvae to molt
